Test results published in patent US20220412957A1, “METHODS OF TREATING CANCER PATIENTS WITH RAS NODE OR RTK TARGETED THERAPEUTIC AGENTS” (Celcuity Inc., priority 2019, published 2022).

System: LPA1-initiated signaling in HER2-negative/PI3K//ERK/MEK/RAF/mTOR Wild-Type breast tumor cell samples
Assay: impedance biosensor cell adhesion test, LPA1 agonist with RAS node inhibitors (Example 4)
Type: cell-based, human
Parameters: unit not given here
Excerpt: Tissue and cell samples: 28 HER2-negative/PI3K//ERK/MEK/RAF/mTOR Wild-Type breast tumor cell samples were studied. […] From these responses, the net amount of LPA1-initiated signaling involving PI3K-α, Class 1 PI3K-isoforms (pan-PI3K), Class 1 PI3K-isoforms and mTOR, Bcl-xL and Bcl-2, MEK, ERK, and RAF, individually and in combination, was quantified.
In this example, 14 of the 28 patient cell samples tested recorded output values with at least one of the targeted therapeutic(s) above 250. […] Five patients would be selected to receive treatment with gedatolisib, four would be selected to receive treatment with copanlisib, one patient would be selected to receive treatment with PLX7904, six patients would be selected to receive treatment with gedatolisib and PLX7904, seven patients would be selected to receive treatment with gedatolisib and ravoxertinib, nine patients would be selected to receive treatment with gedatolisib and trametinib, and 14 patients would be selected to receive treatment with gedatolisib and navitoclax.

[1] = sample C1838.01.155, cut-off 250
[2] = sample C1986.01.10, cut-off 250
[3] = sample C2090.01.14, cut-off 250
[4] = sample C2169.01.10, cut-off 250
[5] = sample C3091.01.13, cut-off 250
[6] = sample C3132.01.13, cut-off 250
[7] = sample C3311.01.10, cut-off 250
[8] = sample CL021.01.869, cut-off 250

`C[C@H](Nc1ccc2c(c1)OCCn1cc(N3C(=O)OC[C@H]3C(F)F)nc1-2)C(N)=O` [GDC-0077] showed an output value (sample C1816.01.6, cut-off 250) of −22, an output value [1] of 38 and an output value (sample C1918.01.5, cut-off 250) of 38. It also gave an output value [2] of 62, an output value [3] of 36 and an output value (sample C2167.01.4, cut-off 250) of −12. For the same compound, the output value [4] was 34, the output value (sample C2483.01.6, cut-off 250) was 113 and the output value (sample C2693.01.2, cut-off 250) was −24. It also gave an output value (sample C2697.01.4, cut-off 250) of 31, an output value (sample C2729.01.4, cut-off 250) of 34 and an output value (sample C2748.01.4, cut-off 250) of 65. For the same compound, the output value (sample C2792.01.2, cut-off 250) was 43, the output value (sample C2794.01.9, cut-off 250) was −89 and the output value (sample C2868.01.6, cut-off 250) was −24. For the same compound, the output value (sample C2991.01.7, cut-off 250) was 55, the output value [5] was 60 and the output value (sample C3101.01.6, cut-off 250) was 0. For the same compound, the output value [6] was 0, the output value [7] was 14 and the output value (sample C3337.01.6, cut-off 250) was 139. For the same compound, the output value (sample C3377.01.2, cut-off 250) was −161, the output value (sample C3507.01.5, cut-off 250) was −58 and the output value (sample C3730.01.9, cut-off 250) was −113. The output value (sample C3873.01.4, cut-off 250) was 122, the output value (sample C3957.01.6, cut-off 250) was −10 and the output value (sample C4005.01.2, cut-off 250) was −12. The output value [8] was −466.

For `CCN(C)S(=O)(=O)Nc1ccc(F)c(C(=O)c2c[nH]c3ncc(-c4cnc(C5CC5)nc4)cc23)c1F` [PLX7904], the output value (sample C1816.01.6, cut-off 250) was 158, the output value [1] was −91 and the output value (sample C1918.01.5, cut-off 250) was −5. It also gave an output value [2] of −19, an output value [3] of −38 and an output value (sample C2167.01.4, cut-off 250) of 22. It also gave an output value [4] of 14, an output value (sample C2483.01.6, cut-off 250) of 67 and an output value (sample C2693.01.2, cut-off 250) of −10. For the same compound, the output value (sample C2697.01.4, cut-off 250) was −2, the output value (sample C2729.01.4, cut-off 250) was −2 and the output value (sample C2748.01.4, cut-off 250) was 14. It also gave an output value (sample C2792.01.2, cut-off 250) of 5, an output value (sample C2794.01.9, cut-off 250) of 36 and an output value (sample C2868.01.6, cut-off 250) of −12. For the same compound, the output value (sample C2991.01.7, cut-off 250) was 53, the output value [5] was 50 and the output value (sample C3101.01.6, cut-off 250) was 262. The output value [6] was 22, the output value [7] was −17 and the output value (sample C3337.01.6, cut-off 250) was 58. It also gave an output value (sample C3377.01.2, cut-off 250) of −58, an output value (sample C3507.01.5, cut-off 250) of 46 and an output value (sample C3730.01.9, cut-off 250) of −173. The output value (sample C3873.01.4, cut-off 250) was 89, the output value (sample C3957.01.6, cut-off 250) was −22 and the output value (sample C4005.01.2, cut-off 250) was −22. The output value [8] was 19.

`COc1c(OCCCN2CCOCC2)ccc2c1N=C(NC(=O)c1cnc(N)nc1)N1CCN=C21` [Copanlisib, copanlisib] was tested, and the output value (sample C1816.01.6, cut-off 250) was 374, the output value [1] was 10 and the output value (sample C1918.01.5, cut-off 250) was 113. The output value [2] was 170, the output value [3] was 103 and the output value (sample C2167.01.4, cut-off 250) was 67. It also gave an output value [4] of 199, an output value (sample C2483.01.6, cut-off 250) of 113 and an output value (sample C2693.01.2, cut-off 250) of 46. The output value (sample C2697.01.4, cut-off 250) was 103, the output value (sample C2729.01.4, cut-off 250) was 72 and the output value (sample C2748.01.4, cut-off 250) was 55. The output value (sample C2792.01.2, cut-off 250) was 98, the output value (sample C2794.01.9, cut-off 250) was 14 and the output value (sample C2868.01.6, cut-off 250) was 58. It also gave an output value (sample C2991.01.7, cut-off 250) of 310, an output value [5] of 156 and an output value (sample C3101.01.6, cut-off 250) of 70. The output value [6] was 38, the output value [7] was 430 and the output value (sample C3337.01.6, cut-off 250) was 240. It also gave an output value (sample C3377.01.2, cut-off 250) of 86, an output value (sample C3507.01.5, cut-off 250) of 94 and an output value (sample C3730.01.9, cut-off 250) of 511. The output value (sample C3873.01.4, cut-off 250) was 199, the output value (sample C3957.01.6, cut-off 250) was 53 and the output value (sample C4005.01.2, cut-off 250) was 125. It also gave an output value [8] of −259.

Work on `Cn1nccc1Nc1nccc(-c2ccn([C@H](CO)c3ccc(Cl)c(F)c3)c(=O)c2)n1` [ravoxertinib] yielded an output value (sample C1816.01.6, cut-off 250) of 96, an output value [1] of 108 and an output value (sample C1918.01.5, cut-off 250) of 65. The output value [2] was 26, the output value [3] was 48 and the output value (sample C2167.01.4, cut-off 250) was 7. For the same compound, the output value [4] was 14, the output value (sample C2483.01.6, cut-off 250) was 12 and the output value (sample C2693.01.2, cut-off 250) was −55. It also gave an output value (sample C2697.01.4, cut-off 250) of 55, an output value (sample C2729.01.4, cut-off 250) of 10 and an output value (sample C2748.01.4, cut-off 250) of 60. The output value (sample C2792.01.2, cut-off 250) was 24, the output value (sample C2794.01.9, cut-off 250) was −24 and the output value (sample C2868.01.6, cut-off 250) was −36. For the same compound, the output value (sample C2991.01.7, cut-off 250) was 10, the output value [5] was 67 and the output value (sample C3101.01.6, cut-off 250) was −12. For the same compound, the output value [6] was −22, the output value [7] was −67 and the output value (sample C3337.01.6, cut-off 250) was 53. For the same compound, the output value (sample C3377.01.2, cut-off 250) was 0, the output value (sample C3507.01.5, cut-off 250) was −24 and the output value (sample C3730.01.9, cut-off 250) was −300. The output value (sample C3873.01.4, cut-off 250) was 43, the output value (sample C3957.01.6, cut-off 250) was −5 and the output value (sample C4005.01.2, cut-off 250) was 12. The output value [8] was −226.

`CC(=O)Nc1cccc(-n2c(=O)n(C3CC3)c(=O)c3c(Nc4ccc(I)cc4F)n(C)c(=O)c(C)c32)c1` [trametinib] was tested, and the output value (sample C1816.01.6, cut-off 250) was 29, the output value [1] was 31 and the output value (sample C1918.01.5, cut-off 250) was 65. The output value [2] was 161, the output value [3] was 19 and the output value (sample C2167.01.4, cut-off 250) was −7. It also gave an output value [4] of 67, an output value (sample C2483.01.6, cut-off 250) of 132 and an output value (sample C2693.01.2, cut-off 250) of −60. It also gave an output value (sample C2697.01.4, cut-off 250) of 72, an output value (sample C2729.01.4, cut-off 250) of 26 and an output value (sample C2748.01.4, cut-off 250) of 79. It also gave an output value (sample C2792.01.2, cut-off 250) of 48, an output value (sample C2794.01.9, cut-off 250) of −14 and an output value (sample C2868.01.6, cut-off 250) of −43. For the same compound, the output value (sample C2991.01.7, cut-off 250) was −70, the output value [5] was 50 and the output value (sample C3101.01.6, cut-off 250) was 101. The output value [6] was 10, the output value [7] was 94 and the output value (sample C3337.01.6, cut-off 250) was 113. It also gave an output value (sample C3377.01.2, cut-off 250) of 149, an output value (sample C3507.01.5, cut-off 250) of −29 and an output value (sample C3730.01.9, cut-off 250) of −204. The output value (sample C3873.01.4, cut-off 250) was −72, the output value (sample C3957.01.6, cut-off 250) was 10 and the output value (sample C4005.01.2, cut-off 250) was 36. For the same compound, the output value [8] was −226.

Work on `CN(C)C1CCN(C(=O)c2ccc(NC(=O)Nc3ccc(-c4nc(N5CCOCC5)nc(N5CCOCC5)n4)cc3)cc2)CC1` [gedatolisib] yielded an output value (sample C1816.01.6, cut-off 250) of 84, an output value [1] of 50 and an output value (sample C1918.01.5, cut-off 250) of 206. The output value [2] was 101, the output value [3] was 137 and the output value (sample C2167.01.4, cut-off 250) was 132. It also gave an output value [4] of 242, an output value (sample C2483.01.6, cut-off 250) of 130 and an output value (sample C2693.01.2, cut-off 250) of 86. The output value (sample C2697.01.4, cut-off 250) was 103, the output value (sample C2729.01.4, cut-off 250) was 103 and the output value (sample C2748.01.4, cut-off 250) was 72. The output value (sample C2792.01.2, cut-off 250) was 137, the output value (sample C2794.01.9, cut-off 250) was 38 and the output value (sample C2868.01.6, cut-off 250) was 79. For the same compound, the output value (sample C2991.01.7, cut-off 250) was 396, the output value [5] was 204 and the output value (sample C3101.01.6, cut-off 250) was 149. For the same compound, the output value [6] was 65, the output value [7] was 216 and the output value (sample C3337.01.6, cut-off 250) was 336. It also gave an output value (sample C3377.01.2, cut-off 250) of 113, an output value (sample C3507.01.5, cut-off 250) of 70 and an output value (sample C3730.01.9, cut-off 250) of 494. It also gave an output value (sample C3873.01.4, cut-off 250) of 298, an output value (sample C3957.01.6, cut-off 250) of 74 and an output value (sample C4005.01.2, cut-off 250) of 216. For the same compound, the output value [8] was 353.
